This is an account of results in patent publication US8835644B2, “Broad spectrum benzothiophene-nitrothiazolide and other antimicrobials” (University of Virginia Patent Foundation, priority 2009, dated 2014).

One experiment relates to H. pylori. Description: MIC testing by broth dilution, H. pylori. Format: cell-based, Helicobacter pylori. On the procedure: (§1) A standard broth dilution protocol was used in 96 well microplates containing a standard dilution of the microorganism to be tested in 100 microliters of the appropriate medium. Appropriate medium: E. coli, LB medium; Staphylococcus strains, Trypticase Soy; and for H. pylori and C. jejuni, Brain Heart Infusion. The compounds to be tested were set at 32 μg/ml in 200 microliters in well one and then serially diluted to provide a range from 32 to 0.06. The wells were scored visually at 24 h. The well where there was no growth was recorded as the MIC. Clostridium difficile was tested by agar diffusion and disk diffusion (Kirby Bower) methods under anaerobic conditions on Wilkins Chalgrin agar. In these assays, zone of inhibited growth was measured and compared by relative ratio to the zone recorded for NTZ.
(§2) Representative compounds of the invention were tested in a series of assays against a series of organisms as described above. […] The organisms tested include, C. difficile, H. pylori, C. jejuni, MRSA, S. epidermidis, and E. coli. S. epidermidis and E. coli were tested in the plank and biofilm assay. A disk diffusion assay was also used for C. difficile. Direct PFOR enzyme assays were also performed. All analogues and derivatives were not tested on every organism in every type of assay (the “-” in each table means that it was not tested).
On the technique in general: In broth dilution the organism is exposed to a series of concentrations in liquid medium.

In another experiment the test system is C. jejuni. Description: MIC testing by broth dilution, C. jejuni. The class given is cell-based, Campylobacter jejuni. On the procedure: as §1, §2
The test system of the next experiment is E. coli biofilm. Description: E. coli biofilm assay (activity tables). The class given is cell-based, Escherichia coli. Particulars: biofilm; read-out: MIC (μM) E. coli Biofilm. As for the experimental part:
A quantitative biofilm assay was used to determine the effect of NTZ on biofilm formation (41). Strain 042 was grown overnight at 37° C. with shaking and inoculated 1:100 in 200 μl culture medium in Costar 96-well, flat-bottom, polystyrene microtiter plates containing appropriate concentrations of NTZ. Plates were incubated statically at 37° C. in a humidified incubator. At 24 h, bacterial growth was measured by either transferring […] aliquots to another microtiter plate to determine turbidity or by diluting 100 μl aliquots 1:100 in 9.9 ml PBS for quantitative plate counts on LB medium. Bacterial counts in triplicate are reported as cfu/ml. Biofilm was visualized following staining with 0.5% crystal violet (41) and the absorbance was read at 570 nm using a microplate reader (Molecular Dynamics). All experiments were in triplicate and reported as mean and standard deviation.
as §1, §2

For the next experiment, the system named is MRSA. The experiment can be described thus: MIC testing by broth dilution, MRSA. Format: cell-based, Staphylococcus aureus. On the procedure:
as §1, §2

For another experiment, the system named is E. coli. The experiment can be described thus: MIC testing by broth dilution, E. coli plank. Format: cell-based, Escherichia coli. On the procedure: as §1, §2
The test system of another experiment is S. epidermidis. The experiment can be described thus: MIC testing by broth dilution, S. epidermidis plank. Format: cell-based, Staphylococcus epidermidis. On the procedure: as §1, §2
For another experiment, the system named is S. epidermidis biofilm. The experiment can be described thus: S. epidermidis biofilm assay (activity tables). The class given is cell-based, Staphylococcus epidermidis. On the procedure:
Staphylococcal strains were cultured overnight in TSB at 37° C. with shaking, diluted in fresh medium to an OD600 of 0.01 and 200 W was dispensed into sterile flat bottom polystyrene 96 well microtiter plates (Costar 3596, Corning Inc.). […] Each compound and dilution was tested in triplicate. The plates were incubated overnight at 37° C. in a humidified incubator, without shaking and both growth and biofilm accumulation were determined at 16 h.
Following recording of turbidities, the culture medium was aspirated and the wells were washed three times with distilled water, blotted on paper towels, and fixed with 75% ethanol for 10 minutes.
To visualize biofilm material, 0.5% crystal violet was added to each well and after 5 minutes was removed and the wells washed three times with distilled water. Plates were read using a microplate reader at a wavelength of 570 nm. The dye was then extracted by adding 200 W of 95% ethanol, and the absorbance was read again at 570 nm. All assays were performed in triplicate and the mean and standard deviation determined. […]
as §2

A further experiment has as its system C. difficile. Description: Disk diffusion (Kirby Bower), C. difficile. The class given is cell-based, Clostridium difficile. As to conditions: for Disk Diffusion (%) C. difficile: zone of inhibited growth as relative ratio to the zone for NTZ. On the procedure:
as §1, §2

Setting [1] is: broth dilution, Brain Heart Infusion, 24 h, read-out: MIC (μM) H. pylori.
Where [2] appears, read: broth dilution, Brain Heart Infusion, 24 h, read-out: MIC (μM) C. jejuni.
Setting [3] is: broth dilution, Trypticase Soy, 24 h, read-out: MIC (μM) MRSA.
The mark [4] stands for this setting: broth dilution, LB medium, 24 h, read-out: MIC (μM) E. coli Plank.
[5] abbreviates: broth dilution, Trypticase Soy, 24 h, read-out: MIC (μM) S. epidermidis Plank.
[6] abbreviates: Helicobacter pylori, broth dilution, Brain Heart Infusion, 24 h, read-out: MIC (μM) H. pylori.
The mark [7] stands for this setting: Campylobacter jejuni, broth dilution, Brain Heart Infusion, 24 h, read-out: MIC (μM) C. jejuni.
Setting [8] is: Staphylococcus aureus, MRSA, broth dilution, Trypticase Soy, 24 h, read-out: MIC (μM) MRSA.
[9] abbreviates: Escherichia coli, broth dilution, LB medium, 24 h, read-out: MIC (μM) E. coli Plank.
Setting [10] is: Staphylococcus epidermidis, broth dilution, Trypticase Soy, 24 h, read-out: MIC (μM) S. epidermidis Plank.

The structures appear in SMILES notation. In brackets after ≈: the same amount, converted by molar mass. Read-outs that look alike come from different tables or passages of the source.

For `CC1=C(C(=O)Nc2ncc([N+](=O)[O-])s2)Cc2ccccc21` [VPC16a1018], the MIC in the experiment with H. pylori (setting [1]) worked out at 0.7 µM (≈ 0.211 µg/mL); with C. jejuni (setting [2]) it was 10.7 µM (≈ 3.22 µg/mL); in the experiment on E. coli biofilm, 53.1 µM (≈ 16 µg/mL); with MRSA (setting [3]), 106.2 µM (≈ 32 µg/mL); with E. coli (setting [4]), 106.2 µM (≈ 32 µg/mL); with S. epidermidis (setting [5]), 106.2 µM (≈ 32 µg/mL). In addition, the “MIC (μM) S. epidermidis Biofilm” value against S. epidermidis biofilm is 26.5 µM (≈ 7.99 µg/mL).
In the case of `O=C(CCCc1ccccc1)Nc1ncc([N+](=O)[O-])s1` [VPC16a1020], the MIC is reported as 13.8 µM (≈ 4.02 µg/mL) in the experiment with H. pylori (setting [1]); 2.6 µM (≈ 0.757 µg/mL) in the experiment with C. jejuni (setting [2]); 54.9 µM (≈ 16 µg/mL) in the experiment with E. coli biofilm; 109.8 µM (≈ 32 µg/mL) in the experiment with MRSA (setting [3]); 109.8 µM (≈ 32 µg/mL) in the experiment with E. coli (setting [4]); 109.8 µM (≈ 32 µg/mL) in the experiment on S. epidermidis (setting [5]). Besides, in the experiment on C. difficile, the “Disk Diffusion (%) C. difficile” value was determined as 33 ± 3%.
Consider `O=C(CCc1ccccc1)Nc1ncc([N+](=O)[O-])s1` [VPC16b1030], for which the MIC in the experiment with H. pylori (setting [1]) turned out to be 0.3 µM (≈ 0.0832 µg/mL); in the experiment with C. jejuni (setting [2]) it was 1.30 µM (≈ 0.36 µg/mL); in the experiment with E. coli biofilm, 50.5 µM (≈ 14 µg/mL); in the experiment with MRSA (setting [3]) it was 115.4 µM (≈ 32 µg/mL); with E. coli (setting [4]) it was 115.4 µM (≈ 32 µg/mL); in the experiment with S. epidermidis (setting [5]), 14.4 µM (≈ 3.99 µg/mL). Further, in the experiment on C. difficile, the “Disk Diffusion (%) C. difficile” value is 54.5 ± 0.5%.
With `O=C(Nc1ccccc1)c1ncc([N+](=O)[O-])s1` [VPC161232], the MIC was 6 µM (≈ 1.5 µg/mL) with H. pylori (setting [6]); 8 µM (≈ 1.99 µg/mL) in the experiment on C. jejuni (setting [7]); 32.1 µM (≈ 8 µg/mL) in the experiment with MRSA (setting [8]); 128 µM (≈ 32 µg/mL) with E. coli (setting [9]); 16 µM (≈ 3.99 µg/mL) in the experiment on S. epidermidis (setting [10]). The “Disk Diffusion (%) C. difficile” value with C. difficile is 0%.
In the case of `O=C(O)CCCC(=O)Nc1ncc([N+](=O)[O-])s1` [VPC161273], the MIC stood at 5.8 µM (≈ 1.5 µg/mL) in the experiment with H. pylori (setting [1]); 123.4 µM (≈ 32 µg/mL) in the experiment with C. jejuni (setting [2]); 61.7 µM (≈ 16 µg/mL) with E. coli biofilm; 123.4 µM (≈ 32 µg/mL) in the experiment with MRSA (setting [3]); 123.4 µM (≈ 32 µg/mL) in the experiment with E. coli (setting [4]). For the same compound, the “MIC (μM) S. epidermidis Biofilm” value against S. epidermidis biofilm was determined as 123.4 µM (≈ 32 µg/mL).
On to `CC(C)(C)OC(=O)COc1ccccc1C(=O)Nc1ncc([N+](=O)[O-])s1` [VPC162035, tert-butyl 2-(2-(5-nitrothiazol-2-ylcarbamoyl)phenoxy)acetate], for which the MIC with H. pylori (setting [6]) amounted to 1 µM (≈ 0.379 µg/mL); in the experiment on C. jejuni (setting [7]) it was 84.4 µM (≈ 32 µg/mL); with MRSA (setting [8]), 84.3 µM (≈ 32 µg/mL); in the experiment with E. coli (setting [9]) it was 84.3 µM (≈ 32 µg/mL); in the experiment on S. epidermidis (setting [10]), 84.3 µM (≈ 32 µg/mL). Further, in the experiment with C. difficile, the “Disk Diffusion (%) C. difficile” value is given as 0%.
Turning to `O=C(Nc1ncc([N+](=O)[O-])s1)c1cc2ccc(F)cc2s1` [VPC162037], the MIC amounted to 3.1 µM (≈ 1 µg/mL) in the experiment with H. pylori (Thiophene analogues table, read-out: MIC H. pylori); 6.2 µM (≈ 2 µg/mL) in the experiment with C. jejuni (Thiophene analogues table, read-out: MIC C. jejuni); 61.9 µM (≈ 20 µg/mL) in the experiment on MRSA (Thiophene analogues table, read-out: MIC MRSA); 99.0 µM (≈ 32 µg/mL) in the experiment on E. coli (planktonic, Thiophene analogues table, read-out: MIC E. coli Plank); 49.5 µM (≈ 16 µg/mL) with S. epidermidis (planktonic, Thiophene analogues table, read-out: MIC S. epidermidis Plank). For the same compound, the “Disk Diff (%) C. difficile” value in the experiment on C. difficile (Nitazoxanide = 100, Thiophene analogues table) was found to be 70%.
Turning to `CC(=O)NCCOc1ccccc1C(=O)Nc1ncc([N+](=O)[O-])s1` [VPC162044], the MIC was 1.1 µM (≈ 0.385 µg/mL) in the experiment on H. pylori (setting [1]); 34.3 µM (≈ 12 µg/mL) with C. jejuni (setting [2]); 91.3 µM (≈ 32 µg/mL) in the experiment with MRSA (setting [3]); 91.3 µM (≈ 32 µg/mL) in the experiment on E. coli (setting [4]); 22.8 µM (≈ 7.99 µg/mL) with S. epidermidis (setting [5]). Also, in the experiment with C. difficile, the “Disk Diffusion (%) C. difficile” value turned out to be 77%.
